pKd: −log10 of the molar value. No end group written: not given here.
Columns and labels:
in vitro = conditions: pig, PK15 cells
[1] = tested on: capsid protein of the Influenza H1N1 virus; assay: BIACORE surface plasmon resonance interaction with immobilized peptide; type: binding
[2] = tested on: respiratory syncytial virus (RSV); assay: Respiratory syncytial virus replication in bronchial HAE (RT-qPCR); type: cell-based; conditions: 50 μM, 10 days
Protein N (SARS-CoV-2) = Protein N (SARS-CoV-2) (Severe acute respiratory syndrome coronavirus 2, UniProt P0DTC9); assay: BIACORE surface plasmon resonance interaction with immobilized peptide; type: binding
AdV 7 Gomen strain = assay: Adenovirus type 7 replication in bronchial HAE (qPCR); type: cell-based; conditions: 50 μM, 24 hours
[3] = molecular target: T1, extracellular domain of the ACE2 receptor (Homo sapiens, UniProt Q9BYF1); assay: BIACORE surface plasmon resonance interaction with immobilized peptide; type: binding
T1 construct: the extracellular domain of the ACE2 receptor

SARS-CoV-2 [4] = conditions: 96 h, 50 μM
p24 (HIV) = p24 (HIV) (Human immunodeficiency virus type 1 group M subtype B, UniProt P04591); assay: BIACORE surface plasmon resonance interaction with immobilized peptide; type: binding, HIV-1
SARS-CoV-2 [5] = assay: Treatment of patients infected by SARS-CoV-2 (RT-qPCR of nasopharyngeal swabs); type: in vivo, human; conditions: for SARS-CoV-2 negative patients/Total: chloroquine
Procedure: Human studies were conducted in accordance with the Declaration of Helsinki. […] The peptide was administered subcutaneously. The presence of SARS-CoV-2 viral RNA was determined by RT-qPCR (Roche) in nasopharyngeal swabs of the patients every 48 or 96 hours during 15 days. Four groups were formed, each with 20 patients, all in the initial stage of the disease and with similar characteristics. Group 1 patients received the most frequently used treatment in COVID-19 therapy based on Kaletra (Lopinavir/Ritonavir), chloroquine, and Heberon™ Alpha R (IFN α2b). Group 2 received this treatment, plus the peptide identified in the Sequence Listing as SEQ ID NO: 1. The latter was administered subcutaneously, at 2 mg/Kg of weight for 5 days. Group 3 patients received treatment based on Kaletra, chloroquine and a combined formulation of intramuscular IFN a2b (3.0 million international units, MIU) and IFN y (0.5 MIU). Patients in group 4 received the same treatment as Group 3, plus the peptide identified in the Sequence Listing as SEQ ID NO: 1 (2 mg/Kg of weight), subcutaneously for 5 days.

[6] = tested on: vimentin intermediate filaments; assay: Immunodetection of vimentin intermediate filaments in MDBK cells; type: cell-based, bovine; conditions: 100 μM, 24 hours
Procedure: They were then fixed and permeabilized in a solution of acetone:methanol (1:1 V/V) for 10 min at −20° C. and blocked with 1% bovine serum albumin in phosphate buffered saline for 30 min, at 37° C. Vimentin intermediate filaments were detected using a murine anti-vimentin IgG1 monoclonal antibody (4.5 μg/mL) followed by an anti-mouse antibody conjugated to fluorescein isothiocyanate (1/200). Vimentin intermediate filaments (FI) were observed distributed throughout the cytoplasm, from the perinuclear region towards one or both poles of the cell.

T1 sequence (Q9BYF1 18-740): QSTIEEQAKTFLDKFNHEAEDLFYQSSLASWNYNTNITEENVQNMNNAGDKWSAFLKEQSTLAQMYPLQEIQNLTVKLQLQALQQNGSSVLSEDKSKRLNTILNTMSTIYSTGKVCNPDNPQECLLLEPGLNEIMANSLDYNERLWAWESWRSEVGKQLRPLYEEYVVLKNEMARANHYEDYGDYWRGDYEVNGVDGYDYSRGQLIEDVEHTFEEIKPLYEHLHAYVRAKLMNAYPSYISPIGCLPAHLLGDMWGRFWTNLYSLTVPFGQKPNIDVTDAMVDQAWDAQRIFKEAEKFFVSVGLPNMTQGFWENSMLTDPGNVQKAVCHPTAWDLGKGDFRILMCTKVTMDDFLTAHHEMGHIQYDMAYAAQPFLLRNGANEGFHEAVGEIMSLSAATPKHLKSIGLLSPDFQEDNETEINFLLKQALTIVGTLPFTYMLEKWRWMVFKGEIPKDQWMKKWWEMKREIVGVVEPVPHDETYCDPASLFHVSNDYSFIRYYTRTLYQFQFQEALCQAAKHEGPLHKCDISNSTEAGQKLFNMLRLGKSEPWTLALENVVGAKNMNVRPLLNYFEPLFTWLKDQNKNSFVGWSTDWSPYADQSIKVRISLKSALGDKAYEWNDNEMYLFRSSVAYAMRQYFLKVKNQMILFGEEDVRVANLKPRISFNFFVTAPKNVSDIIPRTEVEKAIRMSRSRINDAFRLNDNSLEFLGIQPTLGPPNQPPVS

RVTQMNLNDRLASLYDKV [SEQ ID NO: 1]
CC50 at 96 h (in vitro): > 400000 nM
pKd [1]: 6.11
interaction [1]: showed interaction
Sincitial respiratory virus Inhib. % [2]: 80%
interaction (signal RU) (Protein N (SARS-CoV-2); 10-200 nM): significant increase in signal
pKd (Protein N (SARS-CoV-2); analyte 10-200 nM): 8.45
kd (Protein N (SARS-CoV-2); analyte 10-200 nM): 0.000972 s⁻¹
Rmax (Protein N (SARS-CoV-2); analyte 10-200 nM, biotinylated peptide on SA chip): 329 RU
kon (Protein N (SARS-CoV-2); analyte 10-200 nM, read-out: ka): 271000 M⁻¹ s⁻¹
Adenovirus Ad7 Inhib. % (AdV 7 Gomen strain): 68%
interaction [3]: neither the RBD nor the ACE2 peptide interact
Inhibition % (SARS-CoV-2 [4]): 83.3%
interaction (p24 (HIV)): absence of interaction
SARS-CoV-2 negative patients/Total (SARS-CoV-2 [5]; day 2, Groups 3/4: Kaletra, IFN a2b + IFN y without/with peptide 2 mg/Kg s.c. 5 days): 0/20
SARS-CoV-2 negative patients/Total (SARS-CoV-2 [5]; day 2 after treatment onset, Groups 1/2: Kaletra, Heberon Alpha R without/with peptide 2 mg/Kg s.c. 5 days): 0/20
SARS-CoV-2 negative patients/Total (SARS-CoV-2 [5]; day 4, Groups 1/2: Kaletra, Heberon Alpha R without/with peptide 2 mg/Kg s.c. 5 days): 16/20
SARS-CoV-2 negative patients/Total (SARS-CoV-2 [5]; day 4, Groups 3/4: Kaletra, IFN a2b + IFN y without/with peptide 2 mg/Kg s.c. 5 days): 17/20
SARS-CoV-2 negative patients/Total (SARS-CoV-2 [5]; day 6, Groups 1/2: Kaletra, Heberon Alpha R without/with peptide 2 mg/Kg s.c. 5 days): 20/20
SARS-CoV-2 negative patients/Total (SARS-CoV-2 [5]; day 6, Groups 3/4: Kaletra, IFN a2b + IFN y without/with peptide 2 mg/Kg s.c. 5 days): 20/20
SARS-CoV-2 negative patients/Total (SARS-CoV-2 [5]; day 10, Groups 1/2: Kaletra, Heberon Alpha R without/with peptide 2 mg/Kg s.c. 5 days): 20/20
SARS-CoV-2 negative patients/Total (SARS-CoV-2 [5]; day 10, Groups 3/4: Kaletra, IFN a2b + IFN y without/with peptide 2 mg/Kg s.c. 5 days): 20/20
SARS-CoV-2 negative patients/Total (SARS-CoV-2 [5]; day 14, Groups 1/2: Kaletra, Heberon Alpha R without/with peptide 2 mg/Kg s.c. 5 days): 20/20
SARS-CoV-2 negative patients/Total (SARS-CoV-2 [5]; day 14, Groups 3/4: Kaletra, IFN a2b + IFN y without/with peptide 2 mg/Kg s.c. 5 days): 20/20
SARS-CoV-2 negative patients/Total (SARS-CoV-2 [5]; day 20, Groups 1/2: Kaletra, Heberon Alpha R without/with peptide 2 mg/Kg s.c. 5 days): 20/20
SARS-CoV-2 negative patients/Total (SARS-CoV-2 [5]; day 20, Groups 3/4: Kaletra, IFN a2b + IFN y without/with peptide 2 mg/Kg s.c. 5 days): 20/20
patients negative for SARS-CoV-2 (SARS-CoV-2 [5]; fourth day after treatment onset, Group 2 (peptide + Kaletra, chloroquine, Heberon Alpha R)): 80%
patients negative for SARS-CoV-2 (SARS-CoV-2 [5]; fourth day after treatment onset, Group 4 (peptide + Kaletra, chloroquine, IFN a2b + IFN y)): 85%
patients negative for SARS-CoV-2 (SARS-CoV-2 [5]; sixth day after treatment onset, Group 2): 100%
patients negative for SARS-CoV-2 (SARS-CoV-2 [5]; sixth day after treatment onset, Group 4): 100%
damage to cell integrity after treatment [6]: no damage to cell integrity was observed

— patent US20250282828A1, “PEPTIDES FOR THE TREATMENT OF RESPIRATORY INFECTIONS OF VIRAL ORIGIN” (CENTRO DE INGENIERÍA GENÉTICA Y BIOTECNOLOGÍA, priority 2020, published 2025)
